One data set relates to RPL14a. Kind of data set: Loss of RPL14a on WARS2 over-expression, reversal by proteasome inhibitor. The format is cell-based. The procedure: Cells were lysed in cell lysis buffer (9803, Cell Signaling) containing protease inhibitor (Sigma) and phosphatase inhibitor (Halt Phosphase inhibitor Cocktail, Thermo Scientific) and PMSF (0.5 mM Active Motif). Cell lysate was then briefly sonicated and centrifuged for 10 minutes at 14,000 g (4° C.). Supernatants were retained and protein concentrations were determined using the bicinchoninic acid assay with bovine serum albumin standards. Protein samples (20 μg) were separated on 10% or 13% SDS-polyacrylamide gels, transferred to nitrocellulose membranes, and probed with antibodies as described in the figure legends. Immunoreactive bands were visualized with a horseradish peroxidase-conjugated secondary antibody using Peroxide and LumiGlo reagents (Cell Signaling).

A further data set has as its system WARS secretion. Kind of data set: WARS secretion in HUVEC cell media. Format: cell-based, human. The note with it: HUVEC cells. The procedure:
Human embryonic kidney (HEK) 293 cells were maintained in DMEM supplemented with 10% foetal calf serum and 100 U/ml penicillin and 100 μg/ml streptomycin. Human umbilical vein endothelial (HUVEC) cells and medium (EBM- and EBM-2 single Quats) were purchased from Lonza and used prior to passage 7. For plasmid transfections (for HEK293), cells were seeded a day before at 70% confluence and lipofectamine […] (InvitroGene) transfection reagents were used according to the company's instruction. For HUVEC transfection, Polyplus jetPEI-HUVEC transfection reagent (POLYPLUS-TRANSFECTION Inc. New York) was used according to the company's instruction. For gene transfer, HUVEC were grown to 80% confluence in 6-well plates or T75 flasks. Transduction of cells was performed with a multiplicity of infection (MOI) of 200 plaque-forming units (pfu) in a total volume of 1 ml (6-well plates) or 10 ml (T75 flasks) in HUVEC growth medium. […]
HUVEC cells were seeded in 6-well plates. […] The knockdown efficacy could not be determined by western blot since no antibody against WARS2 can detect endogenous WARS2, although two anti-WARS2 antibodies we made can detect WARS2 in lysates from cells expressing WARS2-flag. […]

Data set [1] concerns the target T1, human mitochondrial WARS2 (Homo sapiens, UniProt Q9UGM6).
T1 construct: GST (inferred from GSH-bead purification; made in house; own inference)
T1 sequence (Q9UGM6 19-360): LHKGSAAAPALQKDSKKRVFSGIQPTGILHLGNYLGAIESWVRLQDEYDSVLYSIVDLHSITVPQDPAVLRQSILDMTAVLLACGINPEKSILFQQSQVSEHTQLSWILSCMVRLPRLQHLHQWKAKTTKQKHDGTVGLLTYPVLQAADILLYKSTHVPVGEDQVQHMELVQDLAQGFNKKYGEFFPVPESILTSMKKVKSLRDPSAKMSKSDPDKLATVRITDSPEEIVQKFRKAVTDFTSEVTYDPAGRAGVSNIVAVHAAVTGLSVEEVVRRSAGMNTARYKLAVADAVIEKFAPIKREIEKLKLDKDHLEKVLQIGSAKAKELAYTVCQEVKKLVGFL
Nature of the data set: WARS2 AMP-Glo enzyme assay. The format is biochemical. The note with it: indolmycin 10 micromolar; enzyme 200 nM; 37° C. one hour. The procedure:
(§1) The WARS and WARS2 enzyme assay was performed using an ATP depletion assay based on a chemilumines optimized with the AMP-Glo™ reagent (Promega) using 96-well format assay. Reaction buffer contained 25 mM Tris-HCL pH7.2, 10 mM MgCl2, 50 mM KCl, 2.5 mM dithiothreitol, 0.1 mg/mL bovine serum albumin, 0.2 mM spermine, 10 U/mL pyrophosphatase and enzyme concentration used was 200 nM. Substrate concentrations were as follows: L-tryptophan 100 μM, bulk E. coli tRNA (Sigma) 200 μg/mL and ATP 100 μM. Reaction was carried out at 37° C. for one hour, followed by adding reagent I (AMP-glo kit). The plate was incubated at room temperature for another hour. At the end of the hour the AMP detection solution was added to all the samples and incubated for one hour at room temperature. Data was collected by measuring the luminescence with the Infinite M200 microplate Reader (Tecan). Indolmycin was added at 10 micromolar concentration where indicated.

In the next data set the target is T2, human cytosolic WARS (Homo sapiens, UniProt P23381).
T2 sequence (P23381 1-471): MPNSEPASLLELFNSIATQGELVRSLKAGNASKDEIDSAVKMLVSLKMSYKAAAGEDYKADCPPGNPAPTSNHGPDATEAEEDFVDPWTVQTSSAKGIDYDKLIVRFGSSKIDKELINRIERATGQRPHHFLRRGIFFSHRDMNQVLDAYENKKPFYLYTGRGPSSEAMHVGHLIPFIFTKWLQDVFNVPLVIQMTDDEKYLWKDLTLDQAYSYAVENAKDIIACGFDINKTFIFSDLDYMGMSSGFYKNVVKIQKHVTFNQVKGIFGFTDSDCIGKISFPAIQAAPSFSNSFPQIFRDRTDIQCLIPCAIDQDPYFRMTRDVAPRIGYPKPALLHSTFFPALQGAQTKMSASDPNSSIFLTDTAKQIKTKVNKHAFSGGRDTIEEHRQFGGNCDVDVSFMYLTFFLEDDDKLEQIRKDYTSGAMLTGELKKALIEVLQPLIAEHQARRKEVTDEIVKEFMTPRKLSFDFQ
Kind of data set: WARS AMP-Glo enzyme assay. The format is biochemical. The note with it: indolmycin 10 micromolar; enzyme 200 nM; 37° C. one hour. As to the method: as §1

The next data set deals with Wars2. Kind of data set: In vivo knock down of Wars2 in rat eye using cholesterol modified siRNA. The note with it: F344 rats; 50 μg intravitreously; 48 hours; versus non-targeting siRNA in contralateral eye. As to the method: Both non-targeting (NT) siRNA and siWars2 were purchased from Dharmacon and formulated in the sterile siRNA buffer provided. Fifty (50) μg of siWars2 was injected intravitreously into one eye of each of three F344 rats in a total volume of 5 μl. The same dose of the NT control siRNA was injected into the contralateral eye of each animal. Retina and choroid were collected after 48 hours, and total RNA was extracted by Trizol (Ambion). cDNA was then synthesized according to the manufacturer's protocol (BioRad).
Real time PCR reactions to measure Wars2 expression were performed with the SYBRgreen mastermix (Qiagen) and normalized to GAPDH mRNA level by using the following primers: […]

Data set [2] relates to LASER-induced choroidal neovascularization (CNV). Kind of data set: Rat model of LASER-induced choroidal neovascularization (CNV). The format is in vivo. The note with it: Brown Norway rats; bilateral intravitreal injection Day 3 (siRNA 100 μg/eye, Ab 5 μg/eye); fluorescein angiography Day 22. The procedure: Non-targeting siRNA (negative control), Wars2 siRNA (test agent), and anti-VEGF Ab (positive control) were administered intravitreously into the eyes of Brown Norway female rats aged 6-8 weeks, according to the following design: • Day 1: Bilateral Laser treatment to produce three (3) lesions per eye • Day 3: Bilateral intravitreal injection of negative control, positive control, or test agent • Day 22: In-vivo fluorescein angiography • Day 22: Enucleation of eyes and fixation for future histological analyses • Three (3) groups of five (5) rats were used, as set out in Table 4.
Animals were dilated with 1% Cyclogyl solution and protected from light. Following observable dilation, the animals were sedated with ketamine/xylazine. The fundus of sedated animals was observed and recorded using a Micron III small animal funduscope (Phoenix Research). Laser treatments were performed using a thermal laser which was connected through the Micron III custom laser attachment. […] The resultant fundus images were recorded and evaluated to confirm that the laser had successfully produced a bubble through the Bruch's membrane. […]
All TIFF images were quantified using computerized image-analysis software (ImageJ, NIH, USA). Lesions were then individually traced free-hand in order to quantify the area in pixels and the colour fundus photos were used as a reference for lesion location. […]

The next data set concerns human WARS2 mRNA. Nature of the data set: siWARS2 knock down in HEK 293 (QPCR). Format: cell-based. The note with it: non targeting control = 1; for WARS2 mRNA expression, Experiment 1 / WARS2 mRNA expression, Experiment 2 / WARS2 mRNA expression, Experiment 3 / WARS2 mRNA expression, Experiment 4 / WARS2 mRNA expression, Experiment 5: 120 nM siRNA, QPCR normalized to GAPDH (ddCt); for WARS2 mRNA expression, Average: average of 5 experiments. As to the method: HEK cells were seeded the day before transfection on 10 cm dish. At a density of ˜50%, transfection was performed using RNAimax (manufacturer's protocol). siRNA was prepared by using a mixture of 120 nM siRNA and 20 μl lipofectamin RNAimax in 1 ml OPTIMEM. Cells were incubated, washed 1× with PBS, and then covered with 5 ml OPTIMEM and the lipofectamin/siRNA mixture added dropwise. Cells were incubated (6 h) and media then changed to (DMEM/10% FBS). RNA was extracted as per protocol (Qiagen). RNA quantification was assessed using Nanodrop and the quality was determined based on OD ratio 260 nm/280 nm. Reverse transcription was performed using 1 μg RNA (Biorad iScript™ cDNA synthesis protocol) and QPCR performed using the QuantiFAST SYBR green protocol.
All samples were analyzed in duplicates and the mean and standard deviation were determined. Specificity of the amplification was determined by a melting curve ranging from 60-95° C. Normalization to GAPDH was performed using the standard ddCt method.

Residues, ends and D or L forms follow the SMILES beside them. *: point of attachment. Cbz = O=C(OCc1ccccc1)*

Consider `CC(C)C[C@@H](C=O)NC(=O)[C@H](CC(C)C)NC(=O)[C@H](CC(C)C)NC(=O)OCc1ccccc1` [MG132] (Cbz-Leu-Leu-Leu-aldehyde), for which the “loss of RPL14a caused by over-expression of WARS2” value in the data set on RPL14a is listed as “reversed”.
As to `C[C@H]1CCC/C=C/[C@@H]2C[C@H](O)C[C@H]2[C@H](O)/C=C/C(=O)O1` [brefeldin A], the “WARS secretion in presence of inhibitor of golgi-mediated secretion” value with WARS secretion is “No effect”.
As for `CN=C1NC(=O)[C@H]([C@H](C)c2c[nH]c3ccccc23)O1` [indolmycin], in data set [1], the “inhibition of WARS2 enzyme activity” value is given as “inhibited human mitochondrial WARS2”. In addition, the “inhibition of WARS enzyme activity” value against human cytosolic WARS is “not human cytosolic WARS activity”.
For “Wars2 siRNA: Rat Wars2 siRNA from Dharmacon: sense 5′-GCUCCAAUCAGAAGUGAUU-3′ (SEQ ID NO: 48), antisense 5′-UCACUUCUGAUUGGAGCUU-3′ (SEQ ID NO: 49) (cholesterol-modified siRNA, position of cholesterol not given here)”, the “Wars2 expression in retina and choroid” value in the data set with Wars2 is listed as “greater inhibition of Wars2 expression”. In data set [2], the extent of neovascularization result is “significant reduction in the extent of neovascularization”.
As for “siRNA 1: Sense 5′-GCAUUCAACCUACAGGAAU-3′ (SEQ ID NO: 50), antisense 5′-AUUCCUGUAGGUUGAAUGC-3′ (SEQ ID NO: 51) (listed as RNA, chemistry not given here)”, in the data set on human WARS2 mRNA, the “WARS2 mRNA expression, Experiment 1” value worked out at 0.26; the “WARS2 mRNA expression, Experiment 2” value is recorded as 0.13; the “WARS2 mRNA expression, Experiment 3” value was found to be 0.18; the “WARS2 mRNA expression, Experiment 4” value amounted to 0.13. In the data set with human WARS2 mRNA, the “WARS2 mRNA expression, Experiment 5” value is 0.14 and the “WARS2 mRNA expression, Average” value is on record as 0.17.
Regarding “siRNA 2: Sense 5′-CCGACAUUCUGUUGUACAA-3′ (SEQ ID NO: 52), antisense 5′-UUGUACAACAGAAUGUCGG-3′ (SEQ ID NO: 53) (listed as RNA, chemistry not given here)”, in the data set on human WARS2 mRNA, the “WARS2 mRNA expression, Experiment 1” value was 0.47; the “WARS2 mRNA expression, Experiment 2” value stood at 0.14; the “WARS2 mRNA expression, Experiment 3” value was determined as 0.13; the “WARS2 mRNA expression, Experiment 4” value amounted to 0.11. In the data set on human WARS2 mRNA, the “WARS2 mRNA expression, Experiment 5” value was determined as 0.09 and the “WARS2 mRNA expression, Average” value was determined as 0.19.
Consider “siRNA 3: Sense 5′-GCUGGACAAGGACCAUUUA-3′ (SEQ ID NO: 54), antisense 5′-UAAAUGGUCCUUGUCCAGC-3′ (SEQ ID NO: 55) (listed as RNA, chemistry not given here)”, for which, in the data set with human WARS2 mRNA, the “WARS2 mRNA expression, Experiment 1” value is 0.43; the “WARS2 mRNA expression, Experiment 2” value is given as 0.22; the “WARS2 mRNA expression, Experiment 3” value is on record as 0.43; the “WARS2 mRNA expression, Experiment 4” value is recorded as 0.37. In addition, in the data set on human WARS2 mRNA, the “WARS2 mRNA expression, Experiment 5” value worked out at 0.30 and the “WARS2 mRNA expression, Average” value was 0.35.

For the origin of these results see US10160971B2, “Methods of modulating WARS2” (NATIONAL UNIVERSITY OF SINGAPORE, priority 2014, dated 2018).
